Results from patent US6075018A, “1-[2-(substituted vinyl)]-3,4-dihydro-4-dihydro-5H-2,3-benzodiazepine derivatives” (priority 1995, dated 2000).

How the values were obtained:
mice = assay: Acute toxicity (dead/treated animals); format: in vivo
Procedure: The SMA inhibiting effect and the acute toxicity data (dead/treated animals, shown in brackets) of the new compounds are provided in Table II.
The experiments were performed according to the method of S.Irwin [Psychopharm. 13, 222 (1968)].

[1] = test system: stereotypy induced by amphetamine; assay: Potentiation of the stereotypy induced by amphetamine, scale of Constall and Naylor; format: in vivo; conditions: ip; 10 mg/kg i.p. + amphetamine 3 mg/kg s.c.
Procedure: The potentiation of the stereotypy evoked by amphetamine was evaluated according to the scale of Constall and Naylor (Eur. J. Pharmacol. 18, 95, 1972).
*10 mg/kg i.p. + amphetamine 3 mg/kg s.c.

[2] = test system: convulsions evoked by pentetrazole; assay: Inhibition of pentetrazole-evoked convulsions, method of Goodmann et al.; format: in vivo; conditions: Mus musculus, ip; mice, 30 mg/kg i.p.; 50 mg/kg i.v. pentetrazole
Procedure: The compounds of general formula (I) exert a moderate anticonvulsive effect, too. This latter was measured in mice applying the method of Goodmann et al.[J. Pharmacol. Exp. Ther. 106, 319, (1952)]. The convulsions evoked by 50 mg/kg i.v. of pentetrazole were inhibited by 30-40% and 50-55% after the i.p. administration of 30 mg/kg of the compounds of Examples 10., 11., 13., 19., 28., 35, 40., and Examples 34 and 38, respectively.

[3] = test system: hippocampal CA1 field potentials (glutamate acting mainly through AMPA receptors); assay: Inhibition of CA1 field potentials in hippocampal slices (glutamatergic transmission), method of Tarnawa et al.; design: species or system rat; conditions: for Inhibition (%) 30 minutes after drug administration / Inhibition (%) 60 minutes after drug administration / Inhibition (%) after 30 minutes wash-out / efficacy compared to GYKI-52466: 50 μM; for Inhibition (%) after 30 minutes wash-out: *p < 0.05 compared to the 60 minutes value; for duration of action compared to known molecules / GYKI-52466 / efficacy compared to GYKI-52466: hippocampal slices; for effect of 30 minutes wash-out on the inhibition: wash-out lasting 30 minutes vs preceding 60 minutes incubation
Procedure: The effects of the compounds on the glutamatergic transmission were studied in hippocampal slices applying the method of Tarnawa et al. (Acta Physiol. Hung., 79, 163, 1992). 400 μm thick slices were prepared from rat brain and maintained in a chamber of interface type under simulated […] conditions. The Schaffer collaterals were stimulated and field potentials were recorded from the pyramidal cells of the hippocampal CA1 region. The neurotransmitter involved in this process is glutamate acting mainly through AMPA receptors.

[4] = test system: hippocampal CA1 field potentials (glutamate acting mainly through AMPA receptors); conditions: known AMPA antagonist; cited from earlier work
[5] = background statement; cited from earlier work

## COc1ccc(/C=C/C2=NNC(C)Cc3cc4c(cc32)OCO4)cc1OC (stereo not drawn) [Example 1, 1-(3,4-Dimethoxystyryl)-4-methyl-7,8-methylenedioxy-3,4-dihydro-5H-2,3-benzodiazepine]
mice; i.p. 300 mg/kg
  acute toxicity (dead/treated animals): 0/5
mice; p.o. 1000 mg/kg
  acute toxicity (dead/treated animals): 0/5

## COc1cc2c(cc1OC)C(/C=C/c1ccc3c(c1)OCO3)=NNC(C)C2 (stereo not drawn) [Example 3]
mice; i.p. 300 mg/kg
  acute toxicity (dead/treated animals): 0/5
mice; p.o. 1000 mg/kg
  acute toxicity (dead/treated animals): 0/5

## COc1cc2c(cc1OC)C(/C=C/c1ccc(N(C)C)cc1)=NNC(C)C2 (stereo not drawn) [Example 7]
[1]
  change in vivo at 10 mg/kg: 90.2%

## CC1Cc2cc3c(cc2C(/C=C/c2ccc4c(c2)OCO4)=NN1)OCO3 (stereo not drawn) [Example 8]
[1]
  change in vivo at 10 mg/kg: 113%

## CC1Cc2cc3c(cc2C(/C=C/c2ccc(N(C)C)cc2)=NN1)OCO3 (stereo not drawn) [Example 9]
[1]
  change in vivo at 10 mg/kg: 141%

## CCOc1cc2c(cc1OCC)C(/C=C/c1ccc(N(C)C)cc1)=NNC(C)C2 (stereo not drawn) [Example 10]
[1]
  change in vivo at 10 mg/kg: 176%
[2]
  inhibition in vivo at 30 mg/kg: 30 to 40%

## COc1cc2c(cc1OC)C(/C=C/c1cccc(O)c1)=NNC(C)C2 (stereo not drawn) [Example 11]
[2]
  inhibition in vivo at 30 mg/kg: 30 to 40%

## COc1ccc(/C=C/C2=NNC(C)Cc3cc4c(cc32)OCO4)cc1C(C)C (stereo not drawn) [Example 13]
[2]
  inhibition in vivo at 30 mg/kg: 30 to 40%

## COc1cc2c(cc1OC)C(/C=C/c1ccccc1Br)=NNC(C)C2 (stereo not drawn) [Example 14]
[1]
  change in vivo at 10 mg/kg: 113%

## COc1ccc(/C=C/C2=NN(C(C)=O)C(C)Cc3cc4c(cc32)OCO4)c(OC)c1 (stereo not drawn) [Example 19, 1-(2,4-Dimethoxystyryl)-3-acetyl-4-methyl-7,8-methylenedioxy-3,4-dihydro-5H-2,3-benzodiazepine]
[2]
  inhibition in vivo at 30 mg/kg: 30 to 40%

## COc1cc2c(cc1OC)C(/C=C/c1ccccc1)=NN(C(C)=O)C(C)C2 (stereo not drawn) [Example 20, 1-Styryl-3-acetyl-4-methyl-7,8-dimethoxy-3,4-dihydro-5H-2,3-benzodiazepine]
mice; i.p. 300 mg/kg
  acute toxicity (dead/treated animals): 1/5

## COc1ccc(/C=C/C2=NN(C(C)=O)C(C)Cc3cc(OC)c(OC)cc32)c(OC)c1 (stereo not drawn) [Example 21, 1-(2,4-Dimethoxystyryl)-3-acetyl-4-methyl-7,8-dimethoxy-3,4-dihydro-5H-2,3-benzodiazepine]
[3]
  Inhibition (%) 30 minutes after drug administration: 16.1 ± 13.4%
  Inhibition (%) 60 minutes after drug administration: 33.7 ± 7.60%
  Inhibition (%) after 30 minutes wash-out: 61.1 ± 4.56%

## COc1cc2c(cc1OC)C(/C=C/c1cccc(OC)c1OC)=NN(C(C)=O)C(C)C2 (stereo not drawn) [Example 22, 1-(2,3-Dimethoxystyryl)-3-acetyl-4-methyl-7,8-dimethoxy-3,4-dihydro-5H-2,3-benzodiazepine]
mice; i.p. 300 mg/kg
  acute toxicity (dead/treated animals): 1/5
[3]
  Inhibition (%) 30 minutes after drug administration: 4.7 ± 0.84%
  Inhibition (%) 60 minutes after drug administration: 37.0 ± 9.19%
  Inhibition (%) after 30 minutes wash-out: 74.3 ± 11.53%

## COc1cccc(/C=C/C2=NN(C(C)=O)C(C)Cc3cc4c(cc32)OCO4)c1OC (stereo not drawn) [Example 23, 1-(2,3-Dimethoxystyryl)-3-acetyl-4-methyl-7,8-methylenedioxy-3,4-dihydro-5H-2,3-benzodiazepine]
mice; i.p. 300 mg/kg
  acute toxicity (dead/treated animals): 0/5
mice; p.o. 1000 mg/kg
  acute toxicity (dead/treated animals): 0/5

## CCC1c2cc(OC)c(OC)cc2C(/C=C/c2ccc([N+](=O)[O-])cc2)=NNC1C (stereo not drawn) [Example 26, 1-(4-Nitrostyryl)-4-methyl-5-ethyl-7,8-dimethoxy-3,4-dihydro-5H-2,3-benzodiazepine]
mice; i.p. 300 mg/kg
  acute toxicity (dead/treated animals): 0/5
mice; p.o. 1000 mg/kg
  acute toxicity (dead/treated animals): 0/5

## CC1Cc2cc3c(cc2C(/C=C/c2ccccc2)=NN1)OCO3 (stereo not drawn) [Example 27, 1-Styryl-4-methyl-7,8-methylenedioxy-3,4-dihydro-5H-2,3-benzodiazepine]
mice; i.p. 300 mg/kg
  acute toxicity (dead/treated animals): 0/5
[1]
  change in vivo at 10 mg/kg: 183%

## COc1cc2c(cc1OC)C(/C=C/c1ccc(Cl)c(Cl)c1)=NNC(C)C2 (stereo not drawn) [Example 28, 1-(3,4-Dichlorostyryl)-4-methyl-7,8-dimethoxy-3,4-dihydro-5H-2,3-benzodiazepine]
[1]
  change in vivo at 10 mg/kg: 92.5%
[2]
  inhibition in vivo at 30 mg/kg: 30 to 40%

## COc1cc2c(cc1OC)C(/C=C/c1ccc([N+](=O)[O-])cc1)=NN(C(C)=O)C(C)C2 (stereo not drawn) [Example 30, 1-(4-Nitrostyryl)-3-acetyl-4-methyl-7,8-dimethoxy-3,4-dihydro-5H-2,3-benzodiazepine]
[1]
  change in vivo at 10 mg/kg: 100%

## COc1cc2c(cc1OC)C(/C=C/c1ccc(N)cc1)=NNC(C)C2 (stereo not drawn) [Example 33, 1-(4-Aminostyryl)-4-methyl-7,8-dimethoxy-3,4-dihydro-5H-2,3-benzodiazepine]
[1]
  change in vivo at 10 mg/kg: 202%

## CC1Cc2cc3c(cc2C(/C=C/c2ccc(N)cc2)=NN1)OCO3 (stereo not drawn) [Example 34, 1-(4-Aminostyryl)-4-methyl-7,8-methylenedioxy-3,4-dihydro-5H-2,3-benzodiazepine]
[1]
  change in vivo at 10 mg/kg: 92%
[2]
  inhibition in vivo at 30 mg/kg: 50 to 55%

## CCC1c2cc(OC)c(OC)cc2C(/C=C/c2ccc(N)cc2)=NNC1C (stereo not drawn) [Example 35, 1-(4-Aminostyryl)-4-methyl-5-ethyl-7,8-dimethoxy-3,4-dihydro-5H-2,3-benzodiazepine]
[2]
  inhibition in vivo at 30 mg/kg: 30 to 40%

## CCC1c2cc(OC)c(OC)cc2C(/C=C/c2ccc(N)cc2)=NN(C(C)=O)C1C (stereo not drawn) [Example 38, 1-(4-Aminostyryl)-3-acetyl-4-methyl-5-ethyl-7,8-dimethoxy-3,4-dihydro-5H-2,3-benzodiazepine]
[2]
  inhibition in vivo at 30 mg/kg: 50 to 55%

## COc1cc2c(cc1OC)C(/C=C/c1ccc(NC(C)=O)cc1)=NN(C(C)=O)C(C)C2 (stereo not drawn) [Example 39, 1-(4-Acetylaminostyryl)-3-acetyl-4-methyl-7,8-dimethoxy-3,4-dihydro-5H-2,3-benzodiazepine]
[3]
  Inhibition (%) 30 minutes after drug administration: 85.3 ± 15.09%
  Inhibition (%) 60 minutes after drug administration: 100 ± 0%
  Inhibition (%) after 30 minutes wash-out: 97.5 ± 0.98%
  duration of action compared to known molecules / GYKI-52466: surpass that of GYKI-52466
  efficacy compared to GYKI-52466: at least equal efficacy to the molecule GYKI-52466
  effect of 30 minutes wash-out on the inhibition: not able to diminish the effect
[1]
  change in vivo at 10 mg/kg: 113%

## CC(=O)Nc1ccc(/C=C/C2=NN(C(C)=O)C(C)Cc3cc4c(cc32)OCO4)cc1 (stereo not drawn) [Example 40, 1-(4-Acetylaminostyryl)-3-acetyl-4-methyl-7,8-methylenedioxy-3,4-dihydro-5H-2,3-benzodiazepine]
[3]
  Inhibition (%) 30 minutes after drug administration: 14.8 ± 7.10%
  Inhibition (%) 60 minutes after drug administration: 25.8 ± 3.04%
  Inhibition (%) after 30 minutes wash-out: 35.4 ± 2.67%
[1]
  change in vivo at 10 mg/kg: 99.7%
[2]
  inhibition in vivo at 30 mg/kg: 30 to 40%

## CCC1c2cc3c(cc2C(/C=C/c2ccc(NC(C)=O)cc2)=NN(C(C)=O)C1C)OCO3 (stereo not drawn) [Example 41, 1-(4-Acetylaminostyryl)-3-acetyl-4-methyl-5-ethyl-7,8-methylenedioxy-3,4-dihydro-5H-2,3-benzodiazepine]
mice; i.p. 300 mg/kg
  acute toxicity (dead/treated animals): 0/5
mice; p.o. 1000 mg/kg
  acute toxicity (dead/treated animals): 0/5
[3]
  Inhibition (%) 30 minutes after drug administration: 79.5 ± 10.10%
  Inhibition (%) 60 minutes after drug administration: 100 ± 0%
  Inhibition (%) after 30 minutes wash-out: 98.6 ± 2.67%
  duration of action compared to known molecules / GYKI-52466: surpass that of GYKI-52466
  efficacy compared to GYKI-52466: at least equal efficacy to the molecule GYKI-52466
  effect of 30 minutes wash-out on the inhibition: not able to diminish the effect

## CC1=NN=C(c2ccc(N)cc2)c2cc3c(cc2C1)OCO3 [GYKI-52466, 1-(4-aminophenyl)-4-methyl-7,8-methylenedioxy-5H-2,3-benzodiazepine, reference compound]
[3]
  Inhibition (%) 30 minutes after drug administration: 94.5 ± 2.07%
  Inhibition (%) 60 minutes after drug administration: 100 ± 0%
  Inhibition (%) after 30 minutes wash-out: 84.6 ± 7.37%
  effect of 30 minutes wash-out on the inhibition: significantly smaller than that observed after the preceding incubation period
[4]
  inhibition of the CA1 field potentials (in words): concentration-dependently inhibits the CA1 field potentials
[5]
  duration of action (in words): rather short
  known pharmacological activity (in words): non-NMDA-glutamic acid antagonist having spasmolytic and antiischemic activities

## COc1cc2c(cc1OC)C(c1cccc(Cl)c1)=NN=C(C)C2 [Girisopam, 1-(3-chlorophenyl)-4-methyl-7,8-dimethoxy-5H-2,3-benzodiazepine, reference compound]
mice; i.p. 300 mg/kg
  acute toxicity (dead/treated animals): 0/6
